Test results: the NIST ThermoML archive (doi:10.1016/j.jct.2006.01.015)
Numbers after ± are expanded uncertainties.

Test: xn = mol fraction of the nth substance listed
Details: 101 kPa, Liquid

CC(=O)N(C)C [N,N-dimethylethanamide] + CC#N
mass density [kg/m3]
Details	293.15 K	298.15 K	303.15 K	308.15 K	313.15 K	318.15 K
x2 = 0	941 ± 0.9	936.5 ± 0.9	932 ± 1	927.6 ± 1	923.1 ± 1	918.6 ± 1.1
x2 = 0.0815	934.2 ± 0.9	929.7 ± 0.9	925.2 ± 1	920.7 ± 1	916.2 ± 1	911.7 ± 1.1
x2 = 0.1674	926.3 ± 0.9	921.8 ± 0.9	917.3 ± 0.9	912.8 ± 1	908.3 ± 1	903.9 ± 1.1
x2 = 0.2386	919.2 ± 0.9	914.7 ± 0.9	910.2 ± 0.9	905.7 ± 1	901.2 ± 1	896.8 ± 1.1
x2 = 0.3133	911.2 ± 0.8	906.7 ± 0.9	902.2 ± 0.9	897.7 ± 1	893.2 ± 1	888.8 ± 1
x2 = 0.3689	904.8 ± 0.8	900.3 ± 0.9	895.8 ± 0.9	891.3 ± 1	886.8 ± 1	882.4 ± 1
x2 = 0.4223	898.3 ± 0.8	893.8 ± 0.9	889.3 ± 0.9	884.8 ± 0.9	880.3 ± 1	875.8 ± 1
x2 = 0.4722	891.8 ± 0.8	887.3 ± 0.9	882.7 ± 0.9	878.2 ± 0.9	873.7 ± 1	869.2 ± 1
x2 = 0.5387	882.5 ± 0.8	877.9 ± 0.8	873.3 ± 0.9	868.8 ± 0.9	864.2 ± 1	859.7 ± 1
x2 = 0.581	876.1 ± 0.8	871.5 ± 0.8	866.9 ± 0.9	862.3 ± 0.9	857.7 ± 1	853.1 ± 1
x2 = 0.6379	866.9 ± 0.8	862.2 ± 0.8	857.6 ± 0.9	852.9 ± 0.9	848.3 ± 1	843.6 ± 1
x2 = 0.6794	859.7 ± 0.8	855 ± 0.8	850.2 ± 0.9	845.5 ± 0.9	840.8 ± 0.9	836.1 ± 1
x2 = 0.7236	851.5 ± 0.8	846.7 ± 0.8	841.9 ± 0.9	837.1 ± 0.9	832.3 ± 0.9	827.5 ± 1
x2 = 0.8071	833.9 ± 0.7	829 ± 0.8	824.1 ± 0.8	819.2 ± 0.9	814.3 ± 0.9	809.4 ± 1
x2 = 0.8776	817 ± 0.7	812 ± 0.8	807 ± 0.8	802 ± 0.8	797 ± 0.9	792 ± 0.9
x2 = 0.9424	799.4 ± 0.7	794.3 ± 0.7	789.2 ± 0.8	784.1 ± 0.8	779 ± 0.9	773.9 ± 0.9

CC#N [acetonitrile] + CN(C)C=O
mass density [kg/m3]
Details	293.15 K	298.15 K	303.15 K	308.15 K	313.15 K	318.15 K
x1 = 0.0654	942 ± 0.9	937.5 ± 0.9	933 ± 1	928.6 ± 1	924.1 ± 1	919.6 ± 1.1
x1 = 0.1303	934.6 ± 0.9	930.1 ± 0.9	925.6 ± 1	921.2 ± 1	916.7 ± 1	912.2 ± 1.1
x1 = 0.1912	927.4 ± 0.9	922.9 ± 0.9	918.4 ± 0.9	914 ± 1	909.4 ± 1	904.9 ± 1.1
x1 = 0.2586	919 ± 0.9	914.5 ± 0.9	909.9 ± 0.9	905.5 ± 1	900.9 ± 1	896.4 ± 1.1
x1 = 0.3204	910.9 ± 0.8	906.3 ± 0.9	901.7 ± 0.9	897.2 ± 1	892.6 ± 1	888.1 ± 1
x1 = 0.3851	902 ± 0.8	897.4 ± 0.9	892.7 ± 0.9	888.2 ± 1	883.6 ± 1	879 ± 1
x1 = 0.4596	891.2 ± 0.8	886.5 ± 0.9	881.8 ± 0.9	877.2 ± 0.9	872.5 ± 1	867.9 ± 1
x1 = 0.5125	883.1 ± 0.8	878.4 ± 0.8	873.6 ± 0.9	869 ± 0.9	864.2 ± 1	859.5 ± 1
x1 = 0.5925	870 ± 0.8	865.2 ± 0.8	860.4 ± 0.9	855.7 ± 0.9	850.9 ± 1	846.1 ± 1
x1 = 0.6402	861.7 ± 0.8	856.9 ± 0.8	852 ± 0.9	847.3 ± 0.9	842.5 ± 0.9	837.6 ± 1
x1 = 0.6899	852.6 ± 0.8	847.8 ± 0.8	842.9 ± 0.9	838.1 ± 0.9	833.2 ± 0.9	828.3 ± 1
x1 = 0.731	844.7 ± 0.8	839.8 ± 0.8	834.9 ± 0.8	830 ± 0.9	825.1 ± 0.9	820.2 ± 1
x1 = 0.7736	836.1 ± 0.8	831.1 ± 0.8	826.1 ± 0.8	821.2 ± 0.9	816.3 ± 0.9	811.4 ± 1
x1 = 0.8522	818.9 ± 0.7	813.9 ± 0.8	808.9 ± 0.8	803.9 ± 0.9	798.9 ± 0.9	793.9 ± 0.9
x1 = 0.9359	798.9 ± 0.7	793.8 ± 0.7	788.7 ± 0.8	783.6 ± 0.8	778.5 ± 0.9	773.4 ± 0.9
x1 = 1	782.1 ± 0.7	776.8 ± 0.7	771.5 ± 0.8	766.3 ± 0.8	761 ± 0.8	755.7 ± 0.9

CNC(C)=O [N-methylacetamide] + CC#N
mass density [kg/m3]
Details	293.15 K	298.15 K	303.15 K	308.15 K	313.15 K	318.15 K
x2 = 0	958.4 ± 0.9	954.2 ± 1	950.1 ± 1	945.9 ± 1	941.7 ± 1.1	937.6 ± 1.1
x2 = 0.0637	951.5 ± 0.9	947.2 ± 1	942.9 ± 1	938.6 ± 1	934.3 ± 1.1	930 ± 1.1
x2 = 0.1232	944.8 ± 0.9	940.3 ± 0.9	935.9 ± 1	931.4 ± 1	927 ± 1.1	922.6 ± 1.1
x2 = 0.1926	936.5 ± 0.9	931.9 ± 0.9	927.3 ± 1	922.8 ± 1	918.2 ± 1.1	913.7 ± 1.1
x2 = 0.2665	927.2 ± 0.9	922.5 ± 0.9	917.8 ± 1	913.1 ± 1	908.4 ± 1	903.7 ± 1.1
x2 = 0.3244	919.5 ± 0.9	914.7 ± 0.9	909.9 ± 1	905.1 ± 1	900.3 ± 1	895.5 ± 1.1
x2 = 0.3702	913.2 ± 0.9	908.3 ± 0.9	903.4 ± 0.9	898.5 ± 1	893.6 ± 1	888.7 ± 1.1
x2 = 0.4365	903.5 ± 0.8	898.5 ± 0.9	893.5 ± 0.9	888.5 ± 1	883.5 ± 1	878.5 ± 1
x2 = 0.4925	894.7 ± 0.8	889.6 ± 0.9	884.5 ± 0.9	879.4 ± 1	874.3 ± 1	869.3 ± 1
x2 = 0.5412	886.6 ± 0.8	881.4 ± 0.9	876.2 ± 0.9	871.1 ± 0.9	865.9 ± 1	860.8 ± 1
x2 = 0.58	879.8 ± 0.8	874.6 ± 0.9	869.4 ± 0.9	864.2 ± 0.9	859 ± 1	853.8 ± 1
x2 = 0.6301	870.6 ± 0.8	865.3 ± 0.8	860.1 ± 0.9	854.9 ± 0.9	849.6 ± 1	844.4 ± 1
x2 = 0.6766	861.6 ± 0.8	856.3 ± 0.8	851 ± 0.9	845.7 ± 0.9	840.4 ± 0.9	835.1 ± 1
x2 = 0.7613	843.8 ± 0.8	838.4 ± 0.8	833 ± 0.8	827.7 ± 0.9	822.3 ± 0.9	816.9 ± 1
x2 = 0.8305	827.8 ± 0.7	822.4 ± 0.8	817 ± 0.8	811.6 ± 0.9	806.2 ± 0.9	800.8 ± 0.9
x2 = 0.9203	804.8 ± 0.7	799.5 ± 0.8	794.2 ± 0.8	788.8 ± 0.8	783.4 ± 0.9	778 ± 0.9

NC=O [formamide] + CC#N
mass density [kg/m3]
Details	293.15 K	298.15 K	303.15 K	308.15 K	313.15 K	318.15 K
x2 = 0	1133 ± 1.2	1129 ± 1.2	1125 ± 1.2	1121 ± 1.3	1117 ± 1.3	1113 ± 1.4
x2 = 0.0764	1104.3 ± 1.1	1099.7 ± 1.2	1095.1 ± 1.2	1090.5 ± 1.2	1085.9 ± 1.3	1081.3 ± 1.3
x2 = 0.161	1073.2 ± 1.1	1068.1 ± 1.1	1063 ± 1.2	1057.9 ± 1.2	1052.8 ± 1.2	1047.7 ± 1.3
x2 = 0.2485	1041.1 ± 1	1035.7 ± 1.1	1030.3 ± 1.1	1024.7 ± 1.2	1019.3 ± 1.2	1013.9 ± 1.2
x2 = 0.2976	1022.9 ± 1	1017.3 ± 1	1011.7 ± 1.1	1006.1 ± 1.1	1000.5 ± 1.2	994.9 ± 1.2
x2 = 0.3444	1005.4 ± 1	999.7 ± 1	994 ± 1.1	988.3 ± 1.1	982.6 ± 1.1	976.9 ± 1.2
x2 = 0.412	980.1 ± 1	974.3 ± 1	968.5 ± 1	962.7 ± 1.1	956.9 ± 1.1	951.1 ± 1.1
x2 = 0.4728	957.8 ± 0.9	951.9 ± 1	946 ± 1	940.2 ± 1	934.3 ± 1.1	928.3 ± 1.1
x2 = 0.5336	935.9 ± 0.9	930 ± 0.9	924.1 ± 1	918.2 ± 1	912.3 ± 1	906.4 ± 1.1
x2 = 0.5862	917.2 ± 0.9	911.3 ± 0.9	905.4 ± 0.9	899.6 ± 1	893.7 ± 1	887.8 ± 1.1
x2 = 0.6388	898.9 ± 0.8	893 ± 0.9	887.1 ± 0.9	881.3 ± 1	875.4 ± 1	869.5 ± 1
x2 = 0.6994	878 ± 0.8	872.2 ± 0.9	866.4 ± 0.9	860.6 ± 0.9	854.8 ± 1	849 ± 1
x2 = 0.7554	859.1 ± 0.8	853.4 ± 0.8	847.7 ± 0.9	842 ± 0.9	836.3 ± 0.9	830.4 ± 1
x2 = 0.8143	839.6 ± 0.8	834 ± 0.8	828.1 ± 0.8	822.6 ± 0.9	817 ± 0.9	811.4 ± 1
x2 = 0.8754	820 ± 0.7	814.5 ± 0.8	809 ± 0.8	803.5 ± 0.9	798 ± 0.9	792.5 ± 0.9
x2 = 0.9398	800.1 ± 0.7	794.7 ± 0.8	789.2 ± 0.8	783.8 ± 0.8	778.4 ± 0.9	773 ± 0.9
